Values after ≈ are worked out from the molar mass of the structure shown.
How the values were obtained:
Type in all cases: cell-based
[1] = system: Bacillus subtilis A; assay: MIC, DST agar + 10% horse blood; details: Bacillus subtilis A; DST agar + 10% horse blood; inoculum 0.001 ml of an undilute overnight broth culture; unit inferred; read-out: MIC Agar
Source text: (§1) The ninimum inhibitory concentrations (MIC) cf this compound required to inhibit the growth of various bacteria are tabulated balow: […]

[2] = system: Citrobacter freundii E8; assay: MIC, DST agar + 10% horse blood; details: Citrobacter freundii, E8, read-out: MIC Agar
Source text: as §1

[3] = system: E. coli ESS; assay: MIC, DST agar + 10% horse blood; details: Escherichia coli, inoculum 0.001 ml of an undilute overnight broth culture, unit inferred
Source text: as §1

[4] = system: Enterobacter cloacae N1; assay: MIC, DST agar + 10% horse blood; details: Enterobacter cloacae N1; DST agar + 10% horse blood; inoculum 0.001 ml of an undilute overnight broth culture; unit inferred; read-out: MIC Agar
Source text: as §1

[5] = system: Escherichia coli 0111; assay: MIC, DST agar + 10% horse blood; details: Escherichia coli, 0111, inoculum 0.001 ml of an undilute overnight broth culture, unit inferred
Source text: as §1

[6] = system: Escherichia coli JT 39; assay: MIC, DST agar + 10% horse blood; details: JT39; Escherichia coli JT 39; DST agar + 10% horse blood; inoculum 0.001 ml of an undilute overnight broth culture; unit inferred; read-out: MIC Agar
Source text: as §1

[7] = system: Klebsiella aerogenes A; assay: MIC, DST agar + 10% horse blood; details: Klebsiella aerogenes A; DST agar + 10% horse blood; inoculum 0.001 ml of an undilute overnight broth culture; unit inferred; read-out: MIC Agar
Source text: as §1

[8] = system: Proteus mirabilis C977; assay: MIC, DST agar + 10% horse blood; details: Proteus mirabilis C977; DST agar + 10% horse blood; inoculum 0.001 ml of an undilute overnight broth culture; unit inferred; read-out: MIC Agar
Source text: as §1

[9] = system: Proteus morganii I580; assay: MIC, DST agar + 10% horse blood; details: Morganella morganii; Proteus morganii I580; DST agar + 10% horse blood; inoculum 0.001 ml of an undilute overnight broth culture; unit inferred; read-out: MIC Agar
Source text: as §1

[10] = system: Proteus rettgeri WM16; assay: MIC, DST agar + 10% horse blood; details: Providencia rettgeri; Proteus rettgeri WM16; DST agar + 10% horse blood; inoculum 0.001 ml of an undilute overnight broth culture; unit inferred; read-out: MIC Agar
Source text: as §1

[11] = system: Proteus vulgaris W091; assay: MIC, DST agar + 10% horse blood; details: W091; Proteus vulgaris WO91; DST agar + 10% horse blood; inoculum 0.001 ml of an undilute overnight broth culture; unit inferred; read-out: MIC Agar
Source text: as §1

[12] = system: Pseudomonas aeruginosa A; assay: MIC, DST agar + 10% horse blood; details: Pseudomonas aeruginosa, read-out: MIC Agar
Source text: as §1

[13] = system: Salmonella typhimurium CT10; assay: MIC, DST agar + 10% horse blood; details: Salmonella enterica, TYPHIMURIUM, read-out: MIC Agar
Source text: as §1

[14] = system: Serratia marcescens US20; assay: MIC, DST agar + 10% horse blood; details: Serratia marcescens US20; DST agar + 10% horse blood; inoculum 0.001 ml of an undilute overnight broth culture; unit inferred; read-out: MIC Agar
Source text: as §1

[15] = system: Shigella sonnei MB 11967; assay: MIC, DST agar + 10% horse blood; details: MB11967, inoculum 0.001 ml of an undilute overnight broth culture, unit inferred
Source text: as §1

[16] = system: Staphylococcus aureus 1517; assay: MIC, DST agar + 10% horse blood; details: Staphylococcus aureus 1517; DST agar + 10% horse blood; inoculum 0.001 ml of an undilute overnight broth culture; unit inferred; read-out: MIC Agar
Source text: as §1

[17] = system: Staphylococcus aureus Oxford; assay: MIC, DST agar + 10% horse blood; details: Staphylococcus aureus Oxford; DST agar + 10% horse blood; inoculum 0.001 ml of an undilute overnight broth culture; unit inferred; read-out: MIC Agar
Source text: as §1

[18] = system: Staphylococcus aureus Russell; assay: MIC, DST agar + 10% horse blood; details: Staphylococcus aureus Russell; DST agar + 10% horse blood; inoculum 0.001 ml of an undilute overnight broth culture; unit inferred; read-out: MIC Agar
Source text: as §1

[19] = system: Streptococcus faecalis I; assay: MIC, DST agar + 10% horse blood; details: Enterococcus faecalis; Streptococcus faecalis I; DST agar + 10% horse blood; inoculum 0.001 ml of an undilute overnight broth culture; unit inferred; read-out: MIC Agar
Source text: as §1

[20] = system: Streptococcus pneumoniae CN33; assay: MIC, DST agar + 10% horse blood; details: Streptococcus pneumoniae CN33; DST agar + 10% horse blood; inoculum 0.001 ml of an undilute overnight broth culture; unit inferred; read-out: MIC Agar
Source text: as §1

[21] = system: Streptococcus pyogenes CN10; assay: MIC, DST agar + 10% horse blood; details: Streptococcus pyogenes CN10; DST agar + 10% horse blood; inoculum 0.001 ml of an undilute overnight broth culture; unit inferred; read-out: MIC Agar
Source text: as §1

[22] = system: Citrobacter freundii E8; assay: MIC, microtitre using Nutrient broth; details: inoculum 0.001 ml of an undilute overnight broth culture, unit inferred
Source text: as §1

[23] = system: E. coli ESS; assay: MIC, microtitre using Nutrient broth; details: Escherichia coli, inoculum 0.001 ml of an undilute overnight broth culture, unit inferred
Source text: as §1

[24] = system: Enterobacter cloacae N1; assay: MIC, microtitre using Nutrient broth; details: Microtitre using Nutrient broth, inoculum 0.001 ml of an undilute overnight broth culture, unit inferred
Source text: as §1

[25] = system: Escherichia coli 0111; assay: MIC, microtitre using Nutrient broth; details: Microtitre using Nutrient broth, inoculum 0.001 ml of an undilute overnight broth culture, unit inferred
Source text: as §1

[26] = system: Escherichia coli JT 39; assay: MIC, microtitre using Nutrient broth; details: JT39; Escherichia coli JT 39; Microtitre using Nutrient broth; inoculum 0.001 ml of an undilute overnight broth culture; unit inferred; read-out: MIC Broth
Source text: as §1

[27] = system: Klebsiella aerogenes A; assay: MIC, microtitre using Nutrient broth; details: Klebsiella aerogenes A; Microtitre using Nutrient broth; inoculum 0.001 ml of an undilute overnight broth culture; unit inferred; read-out: MIC Broth
Source text: as §1

[28] = system: Proteus mirabilis C977; assay: MIC, microtitre using Nutrient broth; details: Proteus mirabilis C977; Microtitre using Nutrient broth; inoculum 0.001 ml of an undilute overnight broth culture; unit inferred; read-out: MIC Broth
Source text: as §1

[29] = system: Proteus morganii I580; assay: MIC, microtitre using Nutrient broth; details: Morganella morganii, inoculum 0.001 ml of an undilute overnight broth culture, unit inferred
Source text: as §1

[30] = system: Pseudomonas aeruginosa A; assay: MIC, microtitre using Nutrient broth; details: Pseudomonas aeruginosa; Pseudomanas aeruginosa A; Microtitre using Nutrient broth; inoculum 0.001 ml of an undilute overnight broth culture; unit inferred; read-out: MIC Broth
Source text: as §1

[31] = system: Serratia marcescens US20; assay: MIC, microtitre using Nutrient broth; details: inoculum 0.001 ml of an undilute overnight broth culture, unit inferred
Source text: as §1

[32] = system: Shigella sonnei MB 11967; assay: MIC, microtitre using Nutrient broth; details: MB11967, inoculum 0.001 ml of an undilute overnight broth culture, unit inferred
Source text: as §1

[33] = system: Staphylococcus aureus Oxford; assay: MIC, microtitre using Nutrient broth; details: Staphylococcus aureus Oxford; Microtitre using Nutrient broth; inoculum 0.001 ml of an undilute overnight broth culture; unit inferred; read-out: MIC Broth
Source text: as §1

[34] = system: Staphylococcus aureus Russell; assay: MIC, microtitre using Nutrient broth; details: Staphylococcus aureus Russell; Microtitre using Nutrient broth; inoculum 0.001 ml of an undilute overnight broth culture; unit inferred; read-out: MIC Broth
Source text: as §1

[35] = system: Streptococcus faecalis I; assay: MIC, microtitre using Nutrient broth; details: Enterococcus faecalis, inoculum 0.001 ml of an undilute overnight broth culture, unit inferred
Source text: as §1

[36] = system: Streptococcus pyogenes CN10; assay: MIC, microtitre using Nutrient broth; details: inoculum 0.001 ml of an undilute overnight broth culture, unit inferred
Source text: as §1

In the case of NCC1=C(C(=O)O)N2C(=O)C[C@H]2S1 [compound 37, 2-Aminomethylpenem-3-carboxylic acid], the MIC [1] is reported as 2.5 µg/mL, the MIC [2] is reported as 12.5 µg/mL and the MIC [3] is reported as 5 µg/mL. The MIC [4] was 50 µg/mL, the MIC [5] was 25 µg/mL and the MIC [6] was 50 µg/mL. For the same compound, the MIC [7] was 50 µg/mL, the MIC [8] was 25 µg/mL and the MIC [9] was greater than 50 µg/mL. The MIC [10] was greater than 50 µg/mL, the MIC [11] was greater than 50 µg/mL and the MIC [12] was 12.5 µg/mL. For the same compound, the MIC [13] was 12.5 µg/mL, the MIC [14] was 25 µg/mL and the MIC [15] was 12.5 µg/mL. The MIC [16] was greater than 50 µg/mL, the MIC [17] was 5 µg/mL and the MIC [18] was 5 µg/mL. It also gave an MIC [19] greater than 50 µg/mL, an MIC [20] of 0.5 µg/mL and an MIC [21] of 1.25 µg/mL. The MIC [22] was 0.5 µg/mL (≈ 2.5 µM), the MIC [23] was 4 µg/mL (≈ 20 µM) and the MIC [24] was 16 µg/mL (≈ 79.9 µM). For the same compound, the MIC [25] was 8 µg/mL (≈ 40 µM), the MIC [26] was 16 µg/mL (≈ 79.9 µM) and the MIC [27] was 8 µg/mL (≈ 40 µM). For the same compound, the MIC [28] was 8 µg/mL (≈ 40 µM), the MIC [29] was 16 µg/mL (≈ 79.9 µM) and the MIC [30] was 1 µg/mL (≈ 4.99 µM). For the same compound, the MIC [31] was 16 µg/mL (≈ 79.9 µM), the MIC [32] was 4 µg/mL (≈ 20 µM) and the MIC [33] was 2 µg/mL (≈ 9.99 µM). It also gave an MIC [34] of 4 µg/mL (≈ 20 µM), an MIC [35] of 62 µg/mL (≈ 310 µM) and an MIC [36] of 1 µg/mL (≈ 4.99 µM).

From patent EP0013067A1, “Bicyclic beta-lactam antibacterial agents, their use in pharmaceutical compositions, processes for their preparation and intermediates for use in such processes” (BEECHAM GROUP PLC, priority 1978, dated 1980)
